Tested on: Staphylococcus aureus
Assay: Contact viability assay, 2 minutes exposure
Type: cell-based
Details: on its own
Method: The assay was conducted in glass tubes and all test components were equilibrated at the teat temperature in a water bath before inoculation and during the suspension period (2 minutes). The inoculum is an 18 hour culture of Staphylococcus aureus grown in Brain Heart Infusion Broth. The reduction in CFU's are illustrated in FIG. 4. FIG. 7 illustrates the antimicrobial effect of emulsions of caprylic:oleic, capric:oleic and lauric:oleic with varying concentration in oleic acid. The emulsions were prepared by method 2 in Example 3.

CCCCCCCC/C=C\CCCCCCCC(=O)O [oleic acid]
antimicrobial effect: no significant antimicrobial effect

— patent US20100317734A1, “FREE FATTY ACID BLENDS AND USE THEREOF” (priority 2007, published 2010)
